By IC50 is commonly meant the concentration that inhibits the measured activity by half.

Assay [1] deals with T1, Inhibitor of nuclear factor kappa-B kinase subunit beta (Homo sapiens, UniProt O14920).
T1 sequence (O14920 whole entry): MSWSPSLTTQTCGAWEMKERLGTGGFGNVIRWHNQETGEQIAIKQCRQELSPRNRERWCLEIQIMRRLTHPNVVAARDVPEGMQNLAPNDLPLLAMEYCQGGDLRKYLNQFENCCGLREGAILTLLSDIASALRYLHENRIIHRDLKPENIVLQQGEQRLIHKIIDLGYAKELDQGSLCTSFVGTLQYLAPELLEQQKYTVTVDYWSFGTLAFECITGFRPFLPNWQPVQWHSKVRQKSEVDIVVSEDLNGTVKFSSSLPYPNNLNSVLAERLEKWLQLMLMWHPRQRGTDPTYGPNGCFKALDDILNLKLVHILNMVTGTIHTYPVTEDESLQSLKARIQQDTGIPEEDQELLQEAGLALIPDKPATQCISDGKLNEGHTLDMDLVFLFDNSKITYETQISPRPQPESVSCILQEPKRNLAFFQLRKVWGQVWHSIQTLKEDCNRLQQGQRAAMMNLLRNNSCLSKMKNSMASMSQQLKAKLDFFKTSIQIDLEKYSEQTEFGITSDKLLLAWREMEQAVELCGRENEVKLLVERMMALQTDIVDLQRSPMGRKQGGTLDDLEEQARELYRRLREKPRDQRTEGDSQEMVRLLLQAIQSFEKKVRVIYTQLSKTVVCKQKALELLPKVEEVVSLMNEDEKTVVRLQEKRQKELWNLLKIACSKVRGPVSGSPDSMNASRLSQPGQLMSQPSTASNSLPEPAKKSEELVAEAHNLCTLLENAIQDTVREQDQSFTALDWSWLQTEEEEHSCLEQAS
Kind of assay: Inhibition of recombinant IKBKB (unknown origin) by FRET-based Z'-LYTE assay.

Assay [2] deals with RAC-beta serine/threonine-protein kinase (Homo sapiens, UniProt P31751). Kind of assay: Inhibition of recombinant AKT2 (unknown origin) by FRET-based Z'-LYTE assay.
Chain of RAC-beta serine/threonine-protein kinase (P31751 whole entry): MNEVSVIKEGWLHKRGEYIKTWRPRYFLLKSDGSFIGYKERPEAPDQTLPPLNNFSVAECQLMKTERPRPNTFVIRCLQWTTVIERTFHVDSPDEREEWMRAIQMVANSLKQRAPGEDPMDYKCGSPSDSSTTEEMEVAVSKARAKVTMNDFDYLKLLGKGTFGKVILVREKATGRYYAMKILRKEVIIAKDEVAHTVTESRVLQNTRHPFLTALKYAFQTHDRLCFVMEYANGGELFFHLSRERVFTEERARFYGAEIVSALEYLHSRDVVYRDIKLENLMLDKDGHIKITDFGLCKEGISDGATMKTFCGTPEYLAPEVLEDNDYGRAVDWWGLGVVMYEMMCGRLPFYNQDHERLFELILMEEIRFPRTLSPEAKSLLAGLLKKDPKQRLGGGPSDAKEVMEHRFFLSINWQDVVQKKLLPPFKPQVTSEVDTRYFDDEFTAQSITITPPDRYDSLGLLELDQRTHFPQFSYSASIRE
In assay [3] the target is RAC-alpha serine/threonine-protein kinase (Homo sapiens, UniProt P31749). Kind of assay: Inhibition of recombinant AKT1 (unknown origin) by FRET-based Z'-LYTE assay.
Chain of RAC-alpha serine/threonine-protein kinase (P31749 whole entry): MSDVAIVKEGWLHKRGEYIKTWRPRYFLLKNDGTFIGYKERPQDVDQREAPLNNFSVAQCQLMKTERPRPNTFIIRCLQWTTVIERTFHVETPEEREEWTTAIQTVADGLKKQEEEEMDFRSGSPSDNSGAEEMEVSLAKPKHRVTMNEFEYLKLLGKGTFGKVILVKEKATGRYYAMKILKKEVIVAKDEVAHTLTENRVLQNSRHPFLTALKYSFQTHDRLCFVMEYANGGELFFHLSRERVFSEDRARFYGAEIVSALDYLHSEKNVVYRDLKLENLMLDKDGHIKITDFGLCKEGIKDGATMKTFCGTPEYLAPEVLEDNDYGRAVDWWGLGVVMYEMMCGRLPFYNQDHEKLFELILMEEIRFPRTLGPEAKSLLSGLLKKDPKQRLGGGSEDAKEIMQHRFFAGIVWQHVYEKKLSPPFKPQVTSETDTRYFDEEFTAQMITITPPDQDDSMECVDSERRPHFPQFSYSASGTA
Assay [4] has as its target AMP-activated protein kinase (AMPK) alpha-1/beta-1/gamma-1 (Homo sapiens, UniProt P54619+Q13131+Q9Y478). The assay is described as follows: Inhibition of recombinant AMPK A1/B1/G1 (unknown origin) by FRET-based Z'-LYTE assay. The assay is classed as protein-complex assay.
Assay [5] concerns the target RAF proto-oncogene serine/threonine-protein kinase (Homo sapiens, UniProt P04049). Kind of assay: Inhibition of recombinant RAF1 (unknown origin) by cascade reaction assay.
Assay [6] has as its target Dual specificity mitogen-activated protein kinase kinase 1 (Homo sapiens, UniProt Q02750). The assay is described as follows: Inhibition of recombinant MEK1 (unknown origin) by cascade reaction assay.
Assay [7] has as its target Vascular endothelial growth factor receptor 2 (Homo sapiens, UniProt P35968). The assay is described as follows: Inhibition of recombinant KDR (unknown origin) by FRET-based Z'-LYTE assay.
The target of assay [8] is Mitogen-activated protein kinase 1 (Homo sapiens, UniProt P28482). Kind of assay: Inhibition of recombinant ERK2 (unknown origin) by FRET-based Z'-LYTE assay.
Chain of Mitogen-activated protein kinase 1 (P28482 whole entry): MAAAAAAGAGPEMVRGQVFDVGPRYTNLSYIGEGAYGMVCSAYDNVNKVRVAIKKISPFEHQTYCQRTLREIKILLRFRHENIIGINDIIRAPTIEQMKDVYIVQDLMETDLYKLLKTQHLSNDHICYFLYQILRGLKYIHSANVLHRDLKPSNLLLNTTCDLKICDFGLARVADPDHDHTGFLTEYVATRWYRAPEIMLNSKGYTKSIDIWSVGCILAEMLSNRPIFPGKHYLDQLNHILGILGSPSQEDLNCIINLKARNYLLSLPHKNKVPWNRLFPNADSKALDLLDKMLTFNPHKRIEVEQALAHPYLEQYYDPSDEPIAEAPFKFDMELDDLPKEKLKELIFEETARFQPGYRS
Assay [9] deals with T2, Serine/threonine-protein kinase Nek1 (Homo sapiens, UniProt Q96PY6).
T2 sequence (Q96PY6 whole entry): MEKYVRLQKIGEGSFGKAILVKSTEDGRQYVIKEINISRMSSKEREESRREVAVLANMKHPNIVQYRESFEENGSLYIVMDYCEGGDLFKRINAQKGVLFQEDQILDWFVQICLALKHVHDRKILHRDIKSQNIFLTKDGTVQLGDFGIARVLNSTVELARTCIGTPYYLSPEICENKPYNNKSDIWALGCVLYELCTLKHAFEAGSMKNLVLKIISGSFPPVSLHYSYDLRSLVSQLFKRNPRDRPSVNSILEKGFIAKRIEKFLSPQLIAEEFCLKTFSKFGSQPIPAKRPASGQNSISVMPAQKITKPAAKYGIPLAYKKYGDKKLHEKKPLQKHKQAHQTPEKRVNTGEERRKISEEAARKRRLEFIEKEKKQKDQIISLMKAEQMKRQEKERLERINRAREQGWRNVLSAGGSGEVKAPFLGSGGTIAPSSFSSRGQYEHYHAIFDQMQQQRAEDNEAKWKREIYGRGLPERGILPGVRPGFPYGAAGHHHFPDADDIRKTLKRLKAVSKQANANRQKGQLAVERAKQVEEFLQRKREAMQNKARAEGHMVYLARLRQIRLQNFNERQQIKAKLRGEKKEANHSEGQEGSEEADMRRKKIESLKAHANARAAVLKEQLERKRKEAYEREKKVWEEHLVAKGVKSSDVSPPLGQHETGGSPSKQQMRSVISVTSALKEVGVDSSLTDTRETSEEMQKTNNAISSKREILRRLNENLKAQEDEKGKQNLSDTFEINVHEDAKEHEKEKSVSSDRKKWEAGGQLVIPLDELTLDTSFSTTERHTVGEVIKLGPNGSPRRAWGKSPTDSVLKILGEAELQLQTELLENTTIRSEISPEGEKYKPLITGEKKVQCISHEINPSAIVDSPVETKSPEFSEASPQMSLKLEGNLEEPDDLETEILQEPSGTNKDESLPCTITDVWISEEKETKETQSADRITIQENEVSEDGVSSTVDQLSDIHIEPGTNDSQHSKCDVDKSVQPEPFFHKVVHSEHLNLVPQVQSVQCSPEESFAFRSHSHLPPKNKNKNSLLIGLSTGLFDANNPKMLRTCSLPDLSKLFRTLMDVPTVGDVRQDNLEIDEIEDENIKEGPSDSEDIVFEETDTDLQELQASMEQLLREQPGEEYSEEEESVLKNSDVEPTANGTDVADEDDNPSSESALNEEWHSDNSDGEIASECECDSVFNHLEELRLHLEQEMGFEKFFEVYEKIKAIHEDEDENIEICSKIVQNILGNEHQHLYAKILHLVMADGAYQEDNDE
The assay is described as follows: Inhibition of recombinant NEK1 (unknown origin) by FRET-based Z'-LYTE assay.

The target in assay [10] is MAP kinase-activated protein kinase 2 (Homo sapiens, UniProt P49137). Kind of assay: Inhibition of recombinant MAPKAPK2 (unknown origin) by FRET-based Z'-LYTE assay.
Chain of MAP kinase-activated protein kinase 2 (P49137 whole entry): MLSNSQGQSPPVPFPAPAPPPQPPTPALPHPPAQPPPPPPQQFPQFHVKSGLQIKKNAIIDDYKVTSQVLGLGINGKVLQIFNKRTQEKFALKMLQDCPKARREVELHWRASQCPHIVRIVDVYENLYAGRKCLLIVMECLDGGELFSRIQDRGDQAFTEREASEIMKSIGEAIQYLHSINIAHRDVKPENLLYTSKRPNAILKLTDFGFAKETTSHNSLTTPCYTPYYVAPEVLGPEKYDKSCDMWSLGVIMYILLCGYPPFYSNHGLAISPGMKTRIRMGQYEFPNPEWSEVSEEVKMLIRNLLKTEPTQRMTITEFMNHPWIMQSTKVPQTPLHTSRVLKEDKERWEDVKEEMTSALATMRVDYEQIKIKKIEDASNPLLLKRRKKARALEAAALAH
In assay [11] the target is Ribosomal protein S6 kinase beta-1 (Homo sapiens, UniProt P23443). The assay is described as follows: Inhibition of recombinant RPS6K1 (unknown origin) by FRET-based Z'-LYTE assay.
Chain of Ribosomal protein S6 kinase beta-1 (P23443 whole entry): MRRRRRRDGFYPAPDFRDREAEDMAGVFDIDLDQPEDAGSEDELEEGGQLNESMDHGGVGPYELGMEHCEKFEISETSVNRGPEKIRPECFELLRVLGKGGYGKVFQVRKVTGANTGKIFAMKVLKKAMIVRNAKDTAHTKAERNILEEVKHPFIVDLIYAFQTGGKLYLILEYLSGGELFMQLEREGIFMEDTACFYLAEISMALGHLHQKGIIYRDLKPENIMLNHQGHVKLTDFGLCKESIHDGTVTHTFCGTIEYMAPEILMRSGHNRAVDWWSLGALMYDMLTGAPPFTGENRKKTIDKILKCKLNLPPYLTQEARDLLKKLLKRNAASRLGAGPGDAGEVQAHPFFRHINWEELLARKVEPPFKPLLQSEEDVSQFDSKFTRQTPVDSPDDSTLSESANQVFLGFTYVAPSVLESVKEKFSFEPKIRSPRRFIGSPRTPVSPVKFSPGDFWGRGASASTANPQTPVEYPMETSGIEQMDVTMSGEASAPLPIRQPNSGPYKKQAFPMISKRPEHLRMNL
The target of assay [12] is Mitogen-activated protein kinase 14 (Homo sapiens, UniProt Q16539). The assay is described as follows: Inhibition of recombinant MAPK14 (unknown origin) by FRET-based Z'-LYTE assay.
Chain of Mitogen-activated protein kinase 14 (Q16539 whole entry): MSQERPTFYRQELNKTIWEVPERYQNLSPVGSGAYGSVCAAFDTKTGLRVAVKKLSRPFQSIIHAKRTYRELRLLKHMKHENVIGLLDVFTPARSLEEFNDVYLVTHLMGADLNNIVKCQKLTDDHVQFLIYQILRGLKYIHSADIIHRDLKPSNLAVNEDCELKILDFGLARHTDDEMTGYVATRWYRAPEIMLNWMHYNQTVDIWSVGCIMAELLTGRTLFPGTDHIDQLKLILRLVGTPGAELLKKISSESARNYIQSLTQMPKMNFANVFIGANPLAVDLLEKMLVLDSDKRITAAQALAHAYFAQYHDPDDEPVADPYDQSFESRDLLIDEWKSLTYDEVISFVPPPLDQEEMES

Chain of RAF proto-oncogene serine/threonine-protein kinase (P04049 whole entry): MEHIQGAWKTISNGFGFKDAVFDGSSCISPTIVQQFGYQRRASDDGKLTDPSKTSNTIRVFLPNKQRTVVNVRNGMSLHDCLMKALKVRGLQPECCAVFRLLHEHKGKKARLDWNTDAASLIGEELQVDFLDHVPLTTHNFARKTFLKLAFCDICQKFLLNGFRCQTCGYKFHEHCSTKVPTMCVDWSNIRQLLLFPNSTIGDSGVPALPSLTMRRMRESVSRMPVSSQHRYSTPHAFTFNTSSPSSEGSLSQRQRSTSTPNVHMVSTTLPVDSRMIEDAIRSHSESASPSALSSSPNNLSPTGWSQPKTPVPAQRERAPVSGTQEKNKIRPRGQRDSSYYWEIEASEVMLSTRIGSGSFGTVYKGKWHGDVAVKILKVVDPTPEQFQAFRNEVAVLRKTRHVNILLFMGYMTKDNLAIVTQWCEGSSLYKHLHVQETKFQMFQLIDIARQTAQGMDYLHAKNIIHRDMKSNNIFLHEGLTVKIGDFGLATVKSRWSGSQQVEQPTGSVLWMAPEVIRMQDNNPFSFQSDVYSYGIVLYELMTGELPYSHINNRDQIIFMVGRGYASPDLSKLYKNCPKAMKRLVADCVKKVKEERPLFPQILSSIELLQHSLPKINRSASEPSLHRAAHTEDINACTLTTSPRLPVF
Chain of Vascular endothelial growth factor receptor 2 (P35968 whole entry): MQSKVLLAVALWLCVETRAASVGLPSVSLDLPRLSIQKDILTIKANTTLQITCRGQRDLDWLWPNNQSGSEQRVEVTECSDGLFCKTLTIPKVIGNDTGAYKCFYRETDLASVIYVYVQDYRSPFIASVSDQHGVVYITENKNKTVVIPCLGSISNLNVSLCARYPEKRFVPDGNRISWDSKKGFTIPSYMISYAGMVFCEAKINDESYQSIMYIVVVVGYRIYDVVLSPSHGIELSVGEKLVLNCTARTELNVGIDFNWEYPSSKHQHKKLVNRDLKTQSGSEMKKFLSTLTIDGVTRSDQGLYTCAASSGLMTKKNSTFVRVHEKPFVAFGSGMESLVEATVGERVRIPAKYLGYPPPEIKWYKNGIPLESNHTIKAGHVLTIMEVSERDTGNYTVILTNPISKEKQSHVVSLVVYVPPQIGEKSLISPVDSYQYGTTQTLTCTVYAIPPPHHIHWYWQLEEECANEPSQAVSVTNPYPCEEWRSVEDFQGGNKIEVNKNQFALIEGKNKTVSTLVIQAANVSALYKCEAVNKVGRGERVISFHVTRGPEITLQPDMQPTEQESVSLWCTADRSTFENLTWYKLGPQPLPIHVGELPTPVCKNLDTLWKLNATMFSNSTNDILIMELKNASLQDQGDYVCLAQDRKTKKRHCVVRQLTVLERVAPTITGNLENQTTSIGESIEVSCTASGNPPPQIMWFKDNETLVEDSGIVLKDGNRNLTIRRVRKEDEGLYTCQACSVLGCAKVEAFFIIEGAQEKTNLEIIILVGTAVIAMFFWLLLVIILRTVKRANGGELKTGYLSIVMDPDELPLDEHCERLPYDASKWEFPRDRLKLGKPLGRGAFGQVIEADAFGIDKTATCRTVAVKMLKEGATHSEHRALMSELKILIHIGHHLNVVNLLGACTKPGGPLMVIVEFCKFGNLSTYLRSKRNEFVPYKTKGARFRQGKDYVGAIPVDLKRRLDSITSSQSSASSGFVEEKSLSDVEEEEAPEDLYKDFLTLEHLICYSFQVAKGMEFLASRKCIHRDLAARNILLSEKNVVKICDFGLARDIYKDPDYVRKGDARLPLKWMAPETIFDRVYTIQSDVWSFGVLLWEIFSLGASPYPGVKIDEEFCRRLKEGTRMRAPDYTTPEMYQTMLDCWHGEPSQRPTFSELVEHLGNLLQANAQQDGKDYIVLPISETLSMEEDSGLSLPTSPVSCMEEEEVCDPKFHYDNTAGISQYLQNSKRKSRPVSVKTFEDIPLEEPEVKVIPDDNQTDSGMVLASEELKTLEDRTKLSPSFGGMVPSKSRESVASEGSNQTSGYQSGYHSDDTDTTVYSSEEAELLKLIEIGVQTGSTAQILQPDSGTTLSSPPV
Chain of Dual specificity mitogen-activated protein kinase kinase 1 (Q02750 whole entry): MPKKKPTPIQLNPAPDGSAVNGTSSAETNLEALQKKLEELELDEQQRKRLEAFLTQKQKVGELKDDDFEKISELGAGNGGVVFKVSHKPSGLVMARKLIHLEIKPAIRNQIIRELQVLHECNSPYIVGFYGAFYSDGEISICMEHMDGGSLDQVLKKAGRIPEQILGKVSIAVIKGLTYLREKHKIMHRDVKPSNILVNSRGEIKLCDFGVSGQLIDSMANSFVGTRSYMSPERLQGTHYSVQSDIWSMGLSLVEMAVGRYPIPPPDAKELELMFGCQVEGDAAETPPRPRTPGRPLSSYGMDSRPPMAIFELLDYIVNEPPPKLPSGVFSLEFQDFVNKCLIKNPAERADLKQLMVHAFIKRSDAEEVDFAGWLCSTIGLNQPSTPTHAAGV

As for `O=C1/C(=C/c2ccccn2)CSC/C1=C\c1ccccn1`, the IC50 in [1] is 34 µM; in assay [2], 3.3 µM; in assay [3], 3.6 µM; in assay [4], 26 µM; in assay [5], 8.5 µM; in [6], 30 µM. Also, the IC50 in assay [7] is 6.5 µM; in assay [8] it was 20 µM; in [9], 14 µM; in assay [10], 16 µM; in [11], 12 µM; in assay [12] it was more than 100 µM.
Regarding `CN1C/C(=C\c2ccccn2)C(=O)[C@H](Cc2ccccn2)C1`, the 50% inhibitory concentration (IC50) was 15 µM in assay [1]; more than 100 µM in assay [2]; more than 100 µM in [5]; more than 100 µM in assay [8]; more than 100 µM in [10]; more than 100 µM in [11]. Moreover, the 50% inhibitory concentration (IC50) in [12] is more than 100 µM.
For `CN1C/C(=C\c2ccccn2)C(=O)/C(=C/c2ccccn2)C1`, the concentration for half-maximal inhibition (IC50) was determined as 4 µM in assay [1]; 1.9 µM in assay [2]; 2.6 µM in [3]; 2.5 µM in [4]; 9 µM in assay [6]; 1.3 µM in [7]. For the same compound, the IC50 is 27 µM in assay [8]; 3.5 µM in [9]; 9.8 µM in assay [10]; 6 µM in assay [11]; more than 100 µM in assay [12].
In the case of `CN1C/C(=C\c2ccccn2)C(=O)[C@@H](Cc2ccccn2)C1`, the IC50 in assay [1] was 15 µM; in assay [2], more than 100 µM; in [5], more than 100 µM; in assay [8] it was more than 100 µM; in [10], more than 100 µM; in assay [11], more than 100 µM. Further, in [12], the IC50 is more than 100 µM.
